Measured values reported in US12441727B2, “Tricyclic compounds as inhibitors of KRAS” (Incyte Corporation, priority 2021, dated 2025).
Like-named read-outs stand apart in the source and are kept apart here.

How the values were obtained:
[1] = system: KRAS_G12C pERK in MIA PaCa-2 cells; assay: Whole Blood pERK1/2 HTRF assay (KRAS_G12C WB pERK assay); type: cell-based, human; details: compound in whole blood, 4 hours, read-out: G12C_WB_pERK
Description: MIA PaCa-2 cells (KRAS G12C; ATCC® CRL-1420), HPAF-II (KRAS G12D; ATCC® CRL-1997) and YAPC (KRAS G12V; DSMZ ACC382) are maintained in RPMI 1640 with 10% FBS (Gibco/Life Technologies). For MIA PaCa-2 assay, cells are seeded into 96 well tissue culture plates (Corning #3596) at 25000 cells per well in 100 uL media and cultured for 2 days at 37° C., 5% CO2 before the assay. For HPAF-II and YAPC assay, cells are seeded in 96 well tissue culture plates at 50000 cells per well in 100 uL media and cultured for 1 day before the assay. Whole Blood are added to the 1 uL dots of compounds (prepared in DMSO) in 96 well plates and mixed gently by pipetting up and down so that the concentration of the compound in blood is 1× of desired concentration, in 0.5% DMSO. The media is aspirated from the cells and 50 uL per well of whole blood with test compound is added and incubated for 4 hours for MIA PaCa and YAPC assay; or 2 hours for HPAF-II assay, respectively at 37° C., 5% CO2. After dumping the blood, the plates are gently washed twice by adding PBS to the side of the wells and dumping the PBS from the plate onto a paper towel, tapping the plate to drain well. Fifty ul/well of 1× lysis buffer #1 (Cisbio) with blocking reagent (Cisbio) and Benzonase nuclease (Sigma Cat #E1014-5KU, 1:10000 final concentration) is then added and incubated at room temperature for 30 minutes with shaking (250 rpm). Following lysis, 16 uL of lysate is transferred into 384-well Greiner small volume white plate using an Assist Plus (Integra Biosciences, NH). Four uL of 1:1 mixture of anti Phospho-ERK 1/2 d2 and anti Phospho-ERK 1/2 Cryptate (Cisbio) is added to the wells using the Assist Plus and incubated at room temperature overnight in the dark. Plates are read on the Pherastar plate reader at 665 nm and 620 nm wavelengths. Data are analyzed in Genedata Screener using SmartFit for IC50 values.

KRAS G12C = KRAS G12C (Homo sapiens, UniProt P01116, G12C); assay: GDP-GTP exchange assay (KRAS_G12C exchange assay); type: biochemical; details: bodipy-loaded KRAS G12C 2.5 nM, SOS1 150 nM, 2 hours pre-incubation with inhibitor; read-out: G12C_exchange
Description: The inhibitor potency of the exemplified compounds was determined in a fluorescence based guanine nucleotide exchange assay, which measures the exchange of bodipy-GDP (fluorescently labeled GDP) for GppNHp (Non-hydrolyzable GTP analog) to generate the active state of KRAS in the presence of SOS1 (guanine nucleotide exchange factor). Inhibitors were serially diluted in DMSO and a volume of 0.1 μL was transferred to the wells of a black low volume 384-well plate. 5 μL/well volume of bodipy-loaded KRAS G12C diluted to 5 nM in assay buffer (25 mM Hepes pH 7.5, 50 mM NaCl, 10 mM MgCl2 and 0.01% Brij-35) was added to the plate and pre-incubated with inhibitor for 2 hours at ambient temperature. Appropriate controls (enzyme with no inhibitor or with a G12C inhibitor (AMG-510)) were included on the plate. The exchange was initiated by the addition of a 5 μL/well volume containing 1 mM GppNHp and 300 nM SOS1 in assay buffer. The 10 μL/well reaction concentration of the bodipy-loaded KRAS G12C, GppNHp, and SOS1 were 2.5 nM, 500 uM, and 150 nM, respectively. The reaction plates were incubated at ambient temperature for 2 hours, a time estimated for complete GDP-GTP exchange in the absence of inhibitor. For the KRAS G12D and G12V mutants, similar guanine nucleotide exchange assays were used with 2.5 nM as final concentration for the bodipy loaded KRAS proteins and with 4 hours and 3 hours incubation after adding GppNHp-SOS1 mixture for G12D and G12V respectively. A cyclic peptide described to selectively bind G12D mutant (Sakamoto et al., BBRC 484.3 (2017), 605-611) or internal compounds with confirmed binding were used as positive controls in the assay plates. Fluorescence intensities were measured on a PheraStar plate reader instrument (BMG Labtech) with excitation at 485 nm and emission at 520 nm.
Either GraphPad prism or Genedata Screener SmartFit was used to analyze the data. The IC50 values were derived by fitting the data to a four parameter logistic equation producing a sigmoidal dose-response curve with a variable Hill coefficient.

[2] = Human whole blood stability; type: in vitro ADME; details: percent remaining at 4 hr, 1 μM, 37° C.
Description: The whole blood stability of the exemplified compounds was determined by LC-MS/MS. The 96-Well Flexi-Tier™ Block (Analytical Sales & Services, Inc, Flanders, NJ) is used for the incubation plate containing 1.0 mL glass vials with 0.5 mL of blood per vial (pooled gender, human whole blood sourced from BIOIVT, Hicksville, NY or similar). Blood is pre-warmed in water bath to 37° C. for 30 minutes. 96-deep well analysis plate is prepared with the addition of 100 μL ultrapure water/well. 50 μL chilled ultrapure water/well is added to 96-deep well sample collection plate and covered with a sealing mat. 1 μL of 0.5 mM compound working solution (DMSO:water) is added to the blood in incubation plate to reach final concentrations of 1 μM, mixed by pipetting thoroughly and 50 μL is transferred 50 into the T=0 wells of the sample collection plate. Blood is allowed to sit in the water for 2 minutes and then 400 μL stop solution/well is added (acetonitrile containing an internal standard). The incubation plate is placed in the Incu-Shaker CO2 Mini incubator (Benchmark Scientific, Sayreville, NJ) at 37° C. with shaking at 150 rpm. At 1, 2 and 4-hr, the blood samples are mixed thoroughly by pipetting and 50 μL is transferred into the corresponding wells of the sample collection plate. Blood is allowed to sit in the water for 2 minutes and then 400 μL of stop solution/well is added. The collection plate is sealed and vortexed at 1700 rpm for 3 minutes (VX-2500 Multi-Tube Vortexer, VWR International, Radnor, PA), and samples are then centrifuged in the collection plate at 3500 rpm for 10 minutes (Allegra X-14R Centrifuge Beckman Coulter, Indianapolis, IN). 100 μL of supernatant/well is transferred from the sample collection plate into the corresponding wells of the analysis plate. The final plate is vortexed at 1700 rpm for 1 minute and analyze samples by LC-MS/MS. The peak area ratio of the 1, 2, and 4 hr samples relative to T=0 is used to determine the percent remaining. The natural log of the percent remaining versus time is used determine a slope to calculate the compounds half-life in blood (t1/2=0.693/slope).

KRAS_G12C pERK = assay: Cellular pERK HTRF assay (KRAS_G12C pERK assay); type: cell-based, human; details: KRAS G12C cells, 4 hours incubation with compound, read-out: G12C_pERK
Description: MIA PaCa-2 (KRAS G12C; ATCC® CRL-1420), NCI-H358 (KRAS G12C; ATCC® CRL-5807), A427 (KRAS G12D; ATCC® HTB53), HPAFII (KRAS G12D; ATCC® CRL-1997), YAPC (KRAS G12V; DSMZ ACC382), SW480 (KRAS G12V; ATCC® CRL-228) and NCI-H838 (KRAS WT; ATCC® CRL-5844) cells are purchased from ATCC and maintained in RPMI 1640 media supplemented with 10% FBS (Gibco/Life Technologies). The cells are plated at 5000 cells per well (8 uL) into Greiner 384-well low volume, flat-bottom, and tissue culture treated white plates and incubated overnight at […], 5% CO2. The next morning, test compound stock solutions are diluted in media at 3× the final concentration and 4 uL are added to the cells, with a final concentration of 0.1% of DMSO. The cells are incubated with the test compounds for 4 hours (G12C and G12V) or 2 hrs (G12D) at 37° C., 5% CO2. Four uL of 4× lysis buffer with blocking reagent (Cisbio) are added to each well and plates are rotated gently (300 rpm) for 30 minutes at room temperature. Four uL per well of Cisbio anti Phospho-ERK 1/2 d2 is mixed with anti Phospho-ERK 1/2 Cryptate (1:1), and added to each well, incubated overnight in the dark at room temperature. Plates are read on the Pherastar plate reader at 665 nm and 620 nm wavelengths. Data are analyzed in Genedata Screener using SmartFit for IC50 values.

Chain of KRAS G12C (P01116 1-188 isoform P01116-2 G12C): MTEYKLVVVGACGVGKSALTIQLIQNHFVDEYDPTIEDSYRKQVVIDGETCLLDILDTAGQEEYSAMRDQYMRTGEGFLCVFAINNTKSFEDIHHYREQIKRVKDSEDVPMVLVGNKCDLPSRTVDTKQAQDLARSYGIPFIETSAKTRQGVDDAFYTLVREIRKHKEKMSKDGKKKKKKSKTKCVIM

Row | Structure (SMILES) | IC50 ([1]; Homo sapiens) [nM] | IC50 (KRAS G12C) [nM] | Human whole blood stability at 4 hr [2] | IC50 (KRAS_G12C pERK; Homo sapiens, 4 h) [nM] | IC50 (KRAS_G12C pERK) [nM] | IC50 [1] [nM]
1 | CN(C)C1(C)CN(c2nc3c(F)c(-c4ccc(F)c5cccnc45)c(C(F)(F)F)cc3c3c2nnn3[C@H]2CCN(C(=O)/C=C/CF)[C@H](CC#N)C2)C1 (single isomer, unassigned) [Example 1a] | ≤ 50 | ≤ 50 | ††† (WBS >90%) | ≤ 50 | – | –
2 | COc1c(C)cccc1-c1c(C(F)(F)F)cc2c(nc(N3CC(C)(N(C)C)C3)c3nnn([C@H]4CCN(C(=O)/C=C/CF)[C@H](CC#N)C4)c32)c1F (single isomer, unassigned) [Example 2a] | ≤ 50 | ≤ 50 | †† (WBS >70% but ≤90%) | ≤ 50 | – | –
3 | COC/C=C/C(=O)N1CC[C@H](n2nnc3c(O[C@@H](C)[C@@H]4CCCN4C)nc4c(F)c(-c5c(C)ncc6ccccc56)c(C)cc4c32)C[C@H]1CC#N (single isomer, unassigned) [Example 24b] | ≤ 50 | ≤ 50 | – | – | ≤ 50 | –
4 | C=C(F)C(=O)N1CC[C@H](n2nnc3c(O[C@@H](C)[C@@H]4CCCN4C)nc4c(F)c(-c5c(F)ccc6ccc(C)nc56)c(C)cc4c32)C[C@H]1CC#N (single isomer, unassigned) [Example 25a] | 50 to 100 | ≤ 50 | – | ≤ 50 | – | –
5 | COC/C=C/C(=O)N1CC[C@H](n2nnc3c(O[C@@H](C)[C@@H]4CCCN4C)nc4c(F)c(-c5cnc(C)c6ccccc56)c(C)cc4c32)C[C@H]1CC#N (single isomer, unassigned) [Example 26a] | 50 to 100 | ≤ 50 | – | ≤ 50 | – | –
6 | C=C(F)C(=O)N1CC[C@H](n2nnc3c(O[C@@H](C)[C@@H]4CCCN4C)nc4c(F)c(-c5c(F)ccc6cccnc56)c(C)cc4c32)C[C@H]1CC#N (single isomer, unassigned) [Example 27a] | 50 to 100 | ≤ 50 | – | ≤ 50 | – | –
7 | C=C(F)C(=O)N1CC[C@H](n2nnc3c(O[C@@H](C)[C@@H]4CCCN4C)nc4c(F)c(-c5c(F)ccc6cccnc56)c(C)cc4c32)C[C@H]1CC#N (single isomer, unassigned) [Example 27b] | – | ≤ 50 | – | – | ≤ 50 | 50 to 100
8 | COC/C=C/C(=O)N1CC[C@H](n2nnc3c(O[C@@H](C)[C@@H]4CCCN4C)nc4c(F)c(-c5c(F)cccc5OC)c(C)cc4c32)C[C@H]1CC#N (single isomer, unassigned) [Example 34b] | ≤ 50 | ≤ 50 | ††† (WBS >90%) | – | – | –
9 | COC/C=C/C(=O)N1CC[C@H](n2nnc3c(N4CC(C)(N(C)C)C4)nc4c(F)c(-c5cccc(C)c5C)c(C)cc4c32)C[C@H]1CC#N [Example 6, 2-((2S,4S)-4-(4-(3-(dimethylamino)-3-methylazetidin-1-yl)-7-(2,3-dimethylphenyl)-6-fluoro-8-methyl-1H-[1,2,3]triazolo[4,5-c]quinolin-1-yl)-1-((E)-4-methoxybut-2-enoyl)piperidin-2-yl)acetonitrile] | 100 to 1000 | ≤ 50 | – | ≤ 50 | – | –
10 | COC/C=C/C(=O)N1CC[C@H](n2nnc3c(O[C@@H](C)[C@@H]4CCCN4C)nc4c(F)c(-c5nn(C)c6ccccc56)c(C)cc4c32)C[C@H]1CC#N [Example 9, 2-((2S,4S)-4-(6-fluoro-8-methyl-7-(1-methyl-1H-indazol-3-yl)-4-((S)-1-((S)-1-methylpyrrolidin-2-yl)ethoxy)-1H-[1,2,3]triazolo[4,5-c]quinolin-1-yl)-1-((E)-4-methoxybut-2-enoyl)piperidin-2-yl)acetonitrile] | ≤ 50 | ≤ 50 | – | ≤ 50 | – | –
11 | C=C(F)C(=O)N1CC[C@H](n2nnc3c(O[C@@H](C)[C@@H]4CCCN4C)nc4c(F)c(-c5ncc(F)c6ccccc56)c(C)cc4c32)C[C@H]1CC#N [Example 22, 2-((2S,4S)-4-(6-fluoro-7-(4-fluoroisoquinolin-1-yl)-8-methyl-4-((S)-1-((S)-1-methylpyrrolidin-2-yl)ethoxy)-1H-[1,2,3]triazolo[4,5-c]quinolin-1-yl)-1-(2-fluoroacryloyl)piperidin-2-yl)acetonitrile] | ≤ 50 | ≤ 50 | – | ≤ 50 | – | –
